From ChEMBL document CHEMBL1140544, “Microbial transformation of three bufadienolides by Nocardia sp. and some insight for the cytotoxic structure-activity relationship (SAR)” (Bioorg Med Chem Lett, 2007)

What was measured:
HeLa = experiment: Cytotoxicity against human HeLa cells; assay type: functional, cell-based
HepG2 = experiment: Cytotoxicity against human HepG2 cells; assay type: functional, cell-based
BGC-823 = experiment: Cytotoxicity against human BGC823 cells; assay type: cell-based

CC(=O)O[C@H]1CC[C@@]2(C)[C@H](CC[C@@H]3[C@@H]2CC[C@]2(C)[C@@H](c4ccc(=O)oc4)CC[C@]32O)C1
IC50 (HeLa): 1140 nM | IC50 (HepG2): 740 nM | IC50 (BGC-823): 700 nM

CC(=O)O[C@H]1CC[C@@]2(C)[C@H](CC[C@@H]3[C@@H]2CC[C@]2(C)[C@@H](c4ccc(=O)oc4)[C@@H](OC(C)=O)[C@@H](O)[C@]32O)C1
IC50 (HeLa): 450 nM | IC50 (HepG2): 3100 nM | IC50 (BGC-823): 3370 nM

CC(=O)O[C@H]1CC[C@@]2(C)[C@H](CC[C@@H]3[C@@H]2CC[C@]2(C)[C@@H](c4ccc(=O)oc4)[C@@H](OC(C)=O)[C@H]4O[C@]342)C1
IC50 (HeLa): 1090 nM | IC50 (HepG2): 6440 nM | IC50 (BGC-823): 4110 nM

CC(=O)O[C@H]1CC[C@@]2(C)[C@H](CC[C@@H]3[C@@H]2CC[C@]2(C)[C@@H](c4ccc(=O)oc4)C[C@H]4O[C@]342)C1
IC50 (HeLa): > 50000 nM | IC50 (HepG2): > 50000 nM | IC50 (BGC-823): 19800 nM

C[C@]12CC[C@H](O)C[C@H]1CC[C@@H]1[C@@H]2CC[C@]2(C)[C@@H](c3ccc(=O)oc3)CC[C@]12O [BUFALIN]
IC50 (HeLa): 730 nM | IC50 (HepG2): 640 nM | IC50 (BGC-823): 990 nM

C[C@]12CC[C@H](O)C[C@H]1CC[C@@H]1[C@@H]2CC[C@]2(C)[C@@H](c3ccc(=O)oc3)C[C@H]3O[C@]132 [BUFOGENIN]
IC50 (HeLa): > 50000 nM | IC50 (HepG2): > 50000 nM | IC50 (BGC-823): 7890 nM

CC(=O)O[C@H]1[C@H]2O[C@]23[C@@H]2CC[C@@H]4C[C@@H](O)CC[C@]4(C)[C@H]2CC[C@]3(C)[C@H]1c1ccc(=O)oc1 [CINOBUFAGIN]
IC50 (HeLa): 760 nM | IC50 (HepG2): 5200 nM | IC50 (BGC-823): 8500 nM

CC(=O)O[C@H]1C(=O)[C@@]2(C)[C@H]([C@H](OC(=O)c3ccccc3)[C@]3(O)C[C@H](OC(=O)[C@H](O)[C@@H](NC(=O)c4ccccc4)c4ccccc4)C(C)=C1C3(C)C)[C@]1(OC(C)=O)CO[C@@H]1C[C@@H]2O [PACLITAXEL]
IC50 (HeLa): 20 nM | IC50 (HepG2): 820 nM | IC50 (BGC-823): 1150 nM
